The values below come from patent publication US11731956B2, “Substituted 1,2,4-triazoles as intermediates in the synthesis of TYK2 inhibitors” (Alumis Inc., priority 2018, dated 2023).

Broadly, the Cmax is the peak of the concentration-time curve. The Tmax is the time from dosing to the highest level. Usually Vdss stands for a proportionality between amount in the body and measured concentration, not a real space. Usually AUC stands for the area under the concentration-time curve, a measure of exposure. Usually clearance stands for a measure of how efficiently the substance is removed, as volume per time. The term bioavailability denotes dose-corrected exposure relative to a reference, in per cent. One may read the half-life as the time needed for the level to fall by half in the phase considered. Lower therefore signals fast loss.

The nature of data set [1]: Pharmacokinetic study in cynomolgus monkeys. It counts as in vivo. How it is done: (§1) The pharmacokinctics of test compounds were evaluated in male C57BL/6 mice, Sprague Dawley rats, Beagle dogs, and cynomolgus monkeys when administered via oral gavage and IV injection. The animals were fasted overnight before administration. Plasma samples were collected predose and at 0.5, 1, 3, 6, 9, 12, and 24 hours postdose. The samples were analyzed by LC/MS/MS and the concentration of test compound at each timepoint was determined by linear regression. Pharmacokinetic parameters were calculated from the plasma concentrations using Pheonix WinNonlin.

Data set [2] is described as follows: Pharmacokinetic study in C57BL/6 mice. It counts as in vivo, male C57BL/6 mice. As to the method: as §1
Data set [3] in a line: Pharmacokinetic study in Beagle dogs. The class given is in vivo. The settings on record: dog, plasma. How it is done:
as §1

The nature of data set [4]: Pharmacokinetic study in Sprague Dawley rats. The class given is in vivo. The settings on record: rat, plasma. How it is done: as §1
The mark [5] stands for this setting: Oral (2 mg/kg), NA: no detectable.
Setting [6] is: cynomolgus monkey, plasma, iv, I.V. (1 mg/kg).
The mark [7] stands for this setting: male, mouse, plasma, Oral (10 mg/kg).
Setting [8] is: male, mouse, plasma, iv, I.V. (2 mg/kg).
The mark [9] stands for this setting: cynomolgus monkey, plasma, Oral (2 mg/kg), NA: no detectable.
Where [10] appears, read: iv, I.V. (1 mg/kg), read-out: Vdss.

Consider `[2H]C([2H])([2H])CC(=O)c1cnc(NC(=O)C2CC2)cc1Nc1nccc(-c2ncn(C([2H])([2H])[2H])n2)c1OC` [Example 200], for which, in data set [1] (setting [5]), the Cmax is reported as 384 ± 22 ng/mL, the F % is 27.7 ± 1.7% and the time to peak (Tmax) is 2.0 ± 0 h. This molecule also showed a C0 in data set [1] (setting [6]) of 677 ± 81 ng/mL. In addition, in data set [2] (I.V. (2 mg/kg)), the CL worked out at 7.35 mL · kg − 1 · min − 1 and the Vdss stood at 1.5 L/kg. For the same molecule, in data set [2] (Oral (10 mg/kg)), the Cmax was 4193 ng/mL, the F % is reported as 85.1% and the time of peak concentration (Tmax) worked out at 0.250 h. Besides, in data set [2] (setting [7]), the exposure (AUC) is 19300 ng·h/mL. In data set [2] (setting [8]), the AUC was found to be 4480 ng·h/mL and the C0 is 2390 ng/mL. In data set [3] (iv, I.V. (0.5 mg/kg)), this molecule had a C0 of 29.7 ± 14 ng/mL and a clearance of 8.17 ± 2.6 mL/min/kg. This molecule came in with a C0 in data set [4] (iv, I.V. (1 mg/kg)) of 1030 ± 47 ng/mL.

`[2H]C([2H])([2H])NC(=O)c1nnc(NC(=O)C2CC2)cc1Nc1cccc(-c2ncn(C)n2)c1OC` [control, BMS-986165, reference compound]: the AUC stood at 3190 ± 1630 ng·h/mL in data set [1] (setting [9]); 5740 ± 1170 ng·h/mL in data set [1] (setting [6]); 8870 ng·h/mL in data set [2] (setting [7]); 2040 ng·h/mL in data set [2] (setting [8]); 1310 ± 579 ng·h/mL in data set [3] (Oral (2 mg/kg)); 1900 ± 349 ng·h/mL in data set [3] (iv, I.V. (1 mg/kg)). The AUC in data set [4] (Oral (5 mg/kg)) is 3200 ± 600 ng·h/mL; in data set [4] (iv, I.V. (1 mg/kg)), 1970 ± 166 ng·h/mL. Further, the bioavailability in data set [1] (setting [9]) was determined as 27.8 ± 14%; in data set [2] (setting [7]) it was 86.7%; in data set [3] (Oral (2 mg/kg)), 35.5 ± 15%; in data set [4] (Oral (5 mg/kg)) it was 32.6 ± 5.4%. Also, the half-life in data set [1] (setting [9]) is 10.6 ± 3.8 h; in data set [1] (setting [6]), 7.54 ± 1.6 h; in data set [2] (setting [7]), 2.96 h; in data set [2] (setting [8]), 2.19 h; in data set [3] (Oral (2 mg/kg)) it was 6.21 ± 2.9 h; in data set [3] (iv, I.V. (1 mg/kg)) it was 4.43 ± 0.87 h. Also, the half-life was 2.93 ± 1.2 h in data set [4] (Oral (5 mg/kg)) and 2.42 ± 1.7 h in data set [4] (iv, I.V. (1 mg/kg)). Moreover, the Cmax in data set [1] (cynomolgus monkey, plasma, Oral (2 mg/kg), NA: no detectable, read-out: Cmax) is 247 ± 136 ng/mL; in data set [2] (male, mouse, plasma, Oral (10 mg/kg), read-out: Cmax), 4700 ng/mL; in data set [3] (Oral (2 mg/kg)) it was 222 ± 46 ng/mL; in data set [4] (Oral (5 mg/kg)), 792 ± 260 ng/mL. Moreover, the Tmax in data set [1] (cynomolgus monkey, plasma, Oral (2 mg/kg), NA: no detectable, read-out: Tmax) came to 5.33 ± 1.2 h; in data set [2] (male, mouse, plasma, Oral (10 mg/kg), read-out: Tmax), 0.25 h; in data set [3] (Oral (2 mg/kg)) it was 1.67 ± 0.58 h; in data set [4] (Oral (5 mg/kg)), 1 ± 0.87 h. For the same molecule, the C0 was 1420 ± 264 ng/mL in data set [1] (setting [6]); 3220 ng/mL in data set [2] (setting [8]); 559 ± 34 ng/mL in data set [3] (iv, I.V. (1 mg/kg)); 1740 ± 276 ng/mL in data set [4] (iv, I.V. (1 mg/kg)). Also, the clearance in data set [1] (setting [6]) was 2.79 ± 0.74 mL/min/kg; in data set [2] (setting [8]), 15.6 mL/min/kg; in data set [3] (iv, I.V. (1 mg/kg)), 8.85 ± 1.7 mL/min/kg; in data set [4] (iv, I.V. (1 mg/kg)), 8.41 ± 0.7 mL/min/kg. Further, the Vd stood at 1.2 ± 0.042 L/kg in data set [1] (cynomolgus monkey, plasma, iv, I.V. (1 mg/kg), read-out: Vdss); 1.56 L/kg in data set [2] (male, mouse, plasma, iv, I.V. (2 mg/kg), read-out: Vdss); 2.27 ± 0.23 L/kg in data set [3] (setting [10]); 0.933 ± 0.12 L/kg in data set [4] (setting [10]).

With `[2H]C([2H])([2H])CC(=O)c1cnc(NC(=O)C2CC2)cc1Nc1cccc(-c2ncn(C([2H])([2H])[2H])n2)c1OC` [Example 195], the Cmax in data set [1] (setting [5]) is recorded as 663 ± 497 ng/mL; in data set [2] (Oral (10 mg/kg)), 4295 ng/mL. Moreover, the F % was 16.6 ± 9.95% in data set [1] (setting [5]) and 41.7% in data set [2] (Oral (10 mg/kg)). Also, the Tmax in data set [1] (setting [5]) stood at 4.0 ± 0 h; in data set [2] (Oral (10 mg/kg)), 0.500 h. Further, the C0 in data set [1] (setting [6]) was found to be 1290 ± 106 ng/mL; in data set [2] (setting [8]), 2950 ng/mL; in data set [3] (iv, I.V. (1 mg/kg)), 185 ± 8.4 ng/mL; in data set [4] (iv, I.V. (1 mg/kg)), 2150 ± 123 ng/mL. The CL in data set [2] (I.V. (2 mg/kg)) was 4.16 mL · kg − 1 · min − 1. For the same molecule, in data set [2] (I.V. (2 mg/kg)), the Vdss worked out at 0.688 L/kg. The AUC in data set [2] (setting [7]) stood at 16700 ng·h/mL; in data set [2] (setting [8]), 7990 ng·h/mL.

`[2H]C([2H])([2H])CC(=O)c1cnc(Nc2cccc(C#N)n2)cc1Nc1cccc(-c2ncn(C([2H])([2H])[2H])n2)c1OC` [Example 198]: in data set [1] (setting [5]), the Cmax came out at 246 ± 124 ng/mL, the F % is listed as 59.4 ± 21.1% and the Tmax came to 4 ± 0 h. For the same molecule, the C0 in data set [1] (setting [6]) stood at 667 ± 82 ng/mL. In data set [3] (iv, I.V. (1 mg/kg)), this molecule gave a C0 of 182 ± 47.6 ng/mL. The C0 in data set [4] (iv, I.V. (1 mg/kg)) was 1200 ± 70 ng/mL.

In data set [2] (I.V. (2 mg/kg)), `[2H]C([2H])([2H])CC(=O)c1cnc(Nc2ccc(C(C)(C)O)c(F)n2)cc1Nc1cccc(-c2ncn(C([2H])([2H])[2H])n2)c1OC` [Example 202] gave a CL of 17.3 mL · kg − 1 · min − 1 and a Vdss of 0.785 L/kg. For the same molecule, in data set [2] (Oral (10 mg/kg)), the Cmax is listed as 1899 ng/mL, the F % turned out to be 66.6% and the Tmax came out at 0.500 h. The AUC in data set [2] (setting [7]) was found to be 6400 ng·h/mL. Besides, in data set [2] (setting [8]), the area under the curve (AUC) was 1910 ng·h/mL and the C0 stood at 3340 ng/mL. The molecule further gave a C0 in data set [3] (iv, I.V. (1 mg/kg)) of 469 ± 255 ng/mL. This molecule gave a C0 in data set [4] (iv, I.V. (1 mg/kg)) of 1980 ± 101 ng/mL.

`[2H]C([2H])([2H])CC(=O)c1cnc(Nc2ccc(C(C)(C)O)c(F)n2)cc1Nc1nccc(-c2ncn(C([2H])([2H])[2H])n2)c1OC` [Example 201] yielded a Cmax in data set [1] (setting [5]) of 13.9 ± 2 ng/mL. In data set [1] (setting [5]), this molecule displayed a F % of 4.67 ± 1.5%. Besides, in data set [1] (setting [5]), the Tmax was 2.33 ± 1.5 h. Besides, the C0 in data set [1] (setting [6]) is 849 ± 50 ng/mL; in data set [3] (iv, I.V. (1 mg/kg)), 458 ± 336 ng/mL; in data set [4] (iv, I.V. (1 mg/kg)), 1190 ± 116 ng/mL.

For `[2H]C([2H])([2H])CC(=O)c1cnc(Nc2cccc(C#N)n2)cc1Nc1nccc(-c2ncn(C([2H])([2H])[2H])n2)c1OC` [Example 199], the C0 stood at 334 ± 96 ng/mL in data set [3] (iv, I.V. (1 mg/kg)) and 414 ± 56 ng/mL in data set [4] (iv, I.V. (1 mg/kg)).

The molecule `[2H]C([2H])([2H])CC(=O)c1cnc(Nc2ccc(C(O)(C([2H])([2H])[2H])C([2H])([2H])[2H])c(F)n2)cc1Nc1ncccc1S(C)(=O)=O` [Example 203] had a C0 in data set [1] (setting [6]) of 787 ± 61 ng/mL.
